Reference: US20230027066A1 (Urovant Sciences GmbH, priority 2019, published 2023)

Columns and labels:
Assay type in all cases: in vivo, human
men and women with OAB = test: Phase 2b study of vibegron in OAB, Part 1, efficacy at Week 8 (voiding diary)
Excerpt: Part 2 was designed to continue to assess the safety and efficacy of concomitant dosing. […] Subjects in both Part 1 and Part 2 had the option of enrolling in a 1-year extension. Participants were required to keep a voiding diary, recording the occurrence of each strong urge, total incontinence, and urge incontinence episode. Efficacy data for Part 1 and Part 2 are summarized herein.
The total number of urgency incontinence episodes must have exceeded the total number of stress incontinence episodes for all subjects.

[1] = ABPM study, adverse events; settings: 75 mg, 28 days
Description: Safety was evaluated by assessment of clinical laboratory tests, physical examinations, and vital signs measurements from office visits at various time points during the study, and by the documentation of AEs.
Safety Set (SAF): All subjects who received at least one dose of double-blind study treatment were included in the SAF. Subjects were included in the treatment group corresponding to the Study Treatment that was actually received. This was the population used to summarize safety analyses collected during clinic visits and correspondence with site staff; summarization of baseline/demographic characteristics also presented for the SAF.

[2] = drug interaction study of vibegron and rifampin, pharmacokinetics
[3] = tested on: males and females with OAB; test: Phase 3 study of vibegron 50 mg and 100 mg, 12 weeks, efficacy
[4] = Phase 3 study (75 mg), post-void residual urine volume (PVR)
Excerpt: The risk of acute urinary retention or morbidities related to an increase in Post-Void Residual (PVR) is a concern with antimuscarinic therapy that promotes smooth muscle relaxation by inhibiting acetylcholine-induced smooth muscle contraction. If, during contraction, the bladder cannot generate enough pressure to overcome the outlet resistance in the urethra, either because of poor detrusor contractility or profound obstruction (most commonly from BPH), acute urinary retention or incomplete emptying of the bladder may result.
The volume of urine that remains in the bladder after voiding (PVR) is an objective measurement that may serve as a proxy for impaired ability to void.
PVR were performed via ultrasound at the visits indicated in the Schedule of Activities.

[5] = vibegron 100 mg, OAB Wet subjects
[6] = vibegron 75 mg single dose + rifampin 600 mg QD
[7] = vibegron 75 mg single dose alone
[8] = Males with medical history of BPH

O=C(Nc1ccc(C[C@@H]2CC[C@H]([C@H](O)c3ccccc3)N2)cc1)[C@@H]1CCc2nccc(=O)n21 [Vibegron, (6S)-N-[4-[[(2S,5R)−5-[(R)-hydroxy(phenyl)methyl]pyrrolidin−2-yl]methyl]phenyl]−4-oxo−7,8-dihydro−6H-pyrrolo[1,2-a]pyrimidine−6-carboxamide]
Total incontinence episodes, change from baseline at week 8, difference in LS means 100 mg − 50 mg (men and women with OAB; vibegron 100 mg vs 50 mg): 0.02 | Urgency episodes, change from baseline at week 8, difference in LS means 100 mg − 50 mg (men and women with OAB; vibegron 100 mg vs 50 mg): −0.48 | Urgency incontinence episodes, change from baseline at week 8, difference in LS means 100 mg − 50 mg (men and women with OAB; vibegron 100 mg vs 50 mg): 0.01 | Total incontinence episodes: adjusted difference from placebo at Week 8, difference in LS means (MMRM) (men and women with OAB; [5]): −0.6 | Total incontinence episodes: difference from placebo at Week 8, difference in LS means (cLDA) (men and women with OAB; [5]): −0.58 | Urgency incontinence episodes: adjusted difference from placebo at Week 8, difference in LS means (MMRM) (men and women with OAB; [5]): −0.7 | Urgency incontinence episodes: daily number of events, Week 8 mean (men and women with OAB; [5]): 0.84 | Urgency incontinence episodes: difference from placebo at Week 8, difference in LS means (cLDA) (men and women with OAB; [5]): −0.71 | Discontinued the study: Adverse Event, subjects n ([1]; Randomized N = 106): 2 | AECIs ([1]; Safety N = 106): 8 (7.5) n (%) | AEs Leading to Treatment Discontinuation ([1]; Safety N = 106): 3 (2.8) n (%) | Adverse event: Blood pressure increased ([1]; Safety N = 106): 0 n (%) | Adverse event: Constipation ([1]; Safety N = 106): 2 (1.9) n (%) | Adverse event: Diarrhea ([1]; Safety N = 106): 3 (2.8) n (%) | Adverse event: Dry mouth ([1]; Safety N = 106): 3 (2.8) n (%) | Adverse event: Fatigue ([1]; Safety N = 106): 3 (2.8) n (%) | Adverse event: Haematuria ([1]; Safety N = 106): 3 (2.8) n (%) | Adverse event: Headache ([1]; Safety N = 106): 4 (3.8) n (%) | Adverse event: Hypertension ([1]; Safety N = 106): 5 (4.7) n (%) | Adverse event: Hypotension ([1]; Safety N = 106): 1 (0.9) n (%) | Adverse event: Increased residual urine ([1]; Safety N = 106): 0 n (%) | Adverse event: Nasopharyngitis ([1]; Safety N = 106): 3 (2.8) n (%) | Adverse event: Nausea ([1]; Safety N = 106): 3 (2.8) n (%) | Adverse event: Tachycardia ([1]; Safety N = 106): 0 n (%) | Adverse event: Upper respiratory tract infection ([1]; Safety N = 106): 5 (4.7) n (%) | Adverse event: Urinary retention ([1]; Safety N = 106): 1 (0.9) n (%) | Adverse event: Urinary tract infection ([1]; Safety N = 106): 3 (2.8) n (%) | Fatal adverse event ([1]; Safety N = 106): 0 n (%) | Serious adverse event (SAE) ([1]; Safety N = 106): 1 (0.9) n (%) | Treatment emergent Adverse event (AE) ([1]; Safety N = 106): 49 (46.2) n (%) | Treatment-related AECIs ([1]; Safety N = 106): 3 (2.8) n (%) | Treatment-related SAE by the investigator ([1]; Safety N = 106): 0 n (%) | AUC(0-t) ([2]; both sexes, human, in vivo, 75 mg, read-out: AUC0-t, geometric mean (% CV)): 1160 ng·h/mL | Cmax ([2]; both sexes, human, in vivo, 75 mg, read-out: Cmax, geometric mean (% CV)): 82.3 ng/mL | AUC(0-inf) ([2]; both sexes, human, in vivo, oral, 75 mg, read-out: AUC0-∞, geometric mean (% CV)): 1310 ng·h/mL | half-life ([2]; both sexes, human, in vivo, oral, 75 mg, read-out: t1/2, geometric mean (% CV) (converted)): 84 h | CL/F, geometric mean (% CV) [2, 6]: 57.3 (30.1) L/hr | V/F, geometric mean (% CV) [2, 6]: 6140 (47.0) L | CL/F, geometric mean (% CV) [2, 7]: 57.2 (39.7) L/hr | V/F, geometric mean (% CV) [2, 7]: 6930 (48.6) L | Micturitions: LS mean placebo adjusted change from baseline (95% CI) at Week 12 ([3]; vibegron 50 mg once daily): −0.86 (−1.12, −0.60) | Total incontinence episodes: LS mean placebo adjusted change from baseline (95% CI) at Week 12 ([3]; vibegron 50 mg once daily): −0.30 (−0.49, −0.12) | Urge urinary incontinence episodes: LS mean placebo adjusted change from baseline (95% CI) at Week 12 ([3]; vibegron 50 mg once daily): −0.27 (−0.44, −0.10) | Urgency episodes: LS mean placebo adjusted change from baseline (95% CI) at Week 12 ([3]; vibegron 50 mg once daily): −0.51 (−0.76, −0.25) | Micturitions: LS mean placebo adjusted change from baseline (95% CI) at Week 12 ([3]; vibegron 100 mg once daily): −0.81 (−1.07, −0.55) | Total incontinence episodes: LS mean placebo adjusted change from baseline (95% CI) at Week 12 ([3]; vibegron 100 mg once daily): −0.43 (−0.61, −0.24) | Urge urinary incontinence episodes: LS mean placebo adjusted change from baseline (95% CI) at Week 12 ([3]; vibegron 100 mg once daily): −0.39 (−0.55, −0.22) | Urgency episodes: LS mean placebo adjusted change from baseline (95% CI) at Week 12 ([3]; vibegron 100 mg once daily): −0.67 (−0.93, −0.42) | PVR category at Week 12 <100 mL, patients ([4]; Females): 96.8% | PVR category at Week 12 ≥100 mL to <200 mL, patients ([4]; Females): 3.0% | PVR category at Week 12 ≥200 mL to <350 mL, patients ([4]; Females): 0.2% | PVR category at Week 12 ≥350 mL, patients ([4]; Females): 0 | PVR, Mean Change from Baseline at Week 12 (SD) ([4]; Females): 0.1 (36.19) mL | PVR category at Week 12 <100 mL, patients ([4]; Males): 89.7% | PVR category at Week 12 ≥100 mL to <200 mL, patients ([4]; Males): 7.7% | PVR category at Week 12 ≥200 mL to <350 mL, patients ([4]; Males): 2.6% | PVR category at Week 12 ≥350 mL, patients ([4]; Males): 0 | PVR, Mean Change from Baseline at Week 12 (SD) ([4]; Males): 2.2 (48.45) mL | PVR category at Week 12 <100 mL, patients [4, 8]: 96.6% | PVR category at Week 12 ≥100 mL to <200 mL, patients [4, 8]: 0% | PVR category at Week 12 ≥200 mL to <350 mL, patients [4, 8]: 3.4% | PVR category at Week 12 ≥350 mL, patients [4, 8]: 0 | PVR, Mean Change from Baseline at Week 12 (SD) [4, 8]: −3.4 (42.45) mL | PVR category at Week 12 <100 mL, patients ([4]; all patients): 89.9% | PVR category at Week 12 ≥100 mL to <200 mL, patients ([4]; all patients): 3.5% | PVR category at Week 12 ≥200 mL to <350 mL, patients ([4]; all patients): 0.6% | PVR category at Week 12 ≥350 mL, patients ([4]; all patients): 0 | PVR, Mean Change from Baseline at Week 12 (SD) ([4]; all patients): 0.4 (38.27) mL
